Laboratory results from publication PMC4922798 (Journal of the American Chemical Society, 2015).

Target: CazM (Chaetomium globosum, UniProt A0A0K0MCJ4)
Experiment: HPLC / LC-MS product analysis
Type: biochemical
Conditions: 2 mM 11-SNAC, malonyl-CoA, SAM; pH 7.4, room temperature, 8 h; reductive release

Sequence of CazM (A0A0K0MCJ4 whole entry): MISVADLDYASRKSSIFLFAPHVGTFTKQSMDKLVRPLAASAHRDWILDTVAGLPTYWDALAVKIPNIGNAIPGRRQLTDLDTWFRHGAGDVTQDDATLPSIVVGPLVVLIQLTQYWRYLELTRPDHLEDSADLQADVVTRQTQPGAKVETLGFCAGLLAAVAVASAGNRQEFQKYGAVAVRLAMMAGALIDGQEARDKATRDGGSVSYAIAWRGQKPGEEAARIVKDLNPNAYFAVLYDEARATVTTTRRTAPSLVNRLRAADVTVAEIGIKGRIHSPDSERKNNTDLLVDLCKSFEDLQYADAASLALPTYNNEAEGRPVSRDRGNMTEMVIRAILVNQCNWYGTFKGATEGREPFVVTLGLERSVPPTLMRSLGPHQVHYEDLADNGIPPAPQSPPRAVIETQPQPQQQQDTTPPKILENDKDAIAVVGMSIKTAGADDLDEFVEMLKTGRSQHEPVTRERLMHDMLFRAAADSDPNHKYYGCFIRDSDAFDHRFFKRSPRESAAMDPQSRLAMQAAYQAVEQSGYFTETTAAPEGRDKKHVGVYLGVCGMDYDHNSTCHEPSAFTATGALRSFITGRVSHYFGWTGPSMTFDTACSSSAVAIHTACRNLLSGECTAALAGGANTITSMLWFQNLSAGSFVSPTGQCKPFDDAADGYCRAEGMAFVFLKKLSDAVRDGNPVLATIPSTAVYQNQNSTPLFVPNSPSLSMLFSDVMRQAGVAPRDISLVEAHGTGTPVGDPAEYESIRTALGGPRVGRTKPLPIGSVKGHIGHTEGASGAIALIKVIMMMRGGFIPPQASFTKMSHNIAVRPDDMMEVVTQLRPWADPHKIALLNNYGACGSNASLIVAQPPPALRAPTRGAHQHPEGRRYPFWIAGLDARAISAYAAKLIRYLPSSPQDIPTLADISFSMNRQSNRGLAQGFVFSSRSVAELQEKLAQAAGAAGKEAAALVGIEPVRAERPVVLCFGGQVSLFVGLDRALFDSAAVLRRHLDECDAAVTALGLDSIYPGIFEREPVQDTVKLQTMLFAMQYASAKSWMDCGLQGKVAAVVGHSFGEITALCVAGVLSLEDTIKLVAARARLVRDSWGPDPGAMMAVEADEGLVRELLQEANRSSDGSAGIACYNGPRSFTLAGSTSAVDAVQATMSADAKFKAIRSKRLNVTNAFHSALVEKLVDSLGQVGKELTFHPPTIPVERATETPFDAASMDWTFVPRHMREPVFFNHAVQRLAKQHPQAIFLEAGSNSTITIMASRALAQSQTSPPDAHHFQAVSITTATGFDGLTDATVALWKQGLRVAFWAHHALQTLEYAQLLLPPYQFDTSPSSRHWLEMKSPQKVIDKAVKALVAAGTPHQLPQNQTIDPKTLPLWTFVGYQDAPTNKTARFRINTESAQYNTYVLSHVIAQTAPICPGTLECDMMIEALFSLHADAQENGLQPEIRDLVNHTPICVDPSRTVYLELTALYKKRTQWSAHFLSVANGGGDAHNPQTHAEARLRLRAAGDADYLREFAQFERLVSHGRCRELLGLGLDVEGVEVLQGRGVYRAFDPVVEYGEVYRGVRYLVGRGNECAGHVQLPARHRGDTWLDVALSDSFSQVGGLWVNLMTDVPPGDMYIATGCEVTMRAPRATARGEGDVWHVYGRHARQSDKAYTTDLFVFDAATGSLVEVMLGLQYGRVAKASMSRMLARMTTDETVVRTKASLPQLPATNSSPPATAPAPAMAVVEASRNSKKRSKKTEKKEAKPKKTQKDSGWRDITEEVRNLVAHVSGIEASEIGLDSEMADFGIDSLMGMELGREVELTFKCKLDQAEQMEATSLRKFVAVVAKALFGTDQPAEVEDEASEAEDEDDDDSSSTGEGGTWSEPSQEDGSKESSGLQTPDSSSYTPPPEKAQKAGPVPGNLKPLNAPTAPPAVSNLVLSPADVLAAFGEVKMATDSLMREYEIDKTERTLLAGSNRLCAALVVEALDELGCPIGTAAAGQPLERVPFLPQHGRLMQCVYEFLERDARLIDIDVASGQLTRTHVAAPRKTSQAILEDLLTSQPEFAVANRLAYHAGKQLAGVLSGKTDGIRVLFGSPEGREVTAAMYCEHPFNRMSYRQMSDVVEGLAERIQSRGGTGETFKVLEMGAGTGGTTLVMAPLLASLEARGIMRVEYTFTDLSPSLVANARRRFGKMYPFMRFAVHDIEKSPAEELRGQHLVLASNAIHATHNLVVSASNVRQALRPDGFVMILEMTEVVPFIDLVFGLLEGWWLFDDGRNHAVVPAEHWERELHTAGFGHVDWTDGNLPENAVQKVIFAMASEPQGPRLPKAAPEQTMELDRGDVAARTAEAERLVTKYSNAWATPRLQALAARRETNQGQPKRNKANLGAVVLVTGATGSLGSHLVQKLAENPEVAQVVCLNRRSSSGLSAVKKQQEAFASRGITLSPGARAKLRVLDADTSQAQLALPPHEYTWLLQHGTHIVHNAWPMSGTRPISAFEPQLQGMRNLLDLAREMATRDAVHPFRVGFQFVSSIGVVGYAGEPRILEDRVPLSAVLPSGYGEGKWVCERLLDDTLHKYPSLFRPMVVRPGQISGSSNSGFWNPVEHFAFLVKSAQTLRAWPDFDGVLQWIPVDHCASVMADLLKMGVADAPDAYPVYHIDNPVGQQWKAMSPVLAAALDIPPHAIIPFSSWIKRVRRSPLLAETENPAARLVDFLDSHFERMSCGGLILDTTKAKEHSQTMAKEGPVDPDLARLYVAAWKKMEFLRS

## NC(=O)C1=CN([C@@H]2O[C@H](COP(=O)(O)OP(=O)(O)OC[C@H]3O[C@@H](n4cnc5c(N)ncnc54)[C@H](OP(=O)(O)O)[C@@H]3O)[C@@H](O)[C@H]2O)C=CC1 [NADPH]
  HPLC / LC-MS product analysis: CazM requires NADPH for the reductive offloading of its polyketide product
